Test results taken from paper PMC6838683, “Discovery of Human Signaling Systems: Pairing Peptides to G Protein-Coupled Receptors” (Cell, 2019).
Read-outs that look alike come from different tables or passages of the source. Residues, ends and D or L forms follow the SMILES beside them.

Columns and labels:
GPR15 = target: T1, GPR15 (Homo sapiens, UniProt P49685); test: cAMP inhibition (Gi/o), HTRF with forskolin; format: cell-based; conditions: mean
T1 construct: hIL-2Ra signal peptide (N); expressed in transfected cells
T1 sequence (P49685 2-360 limits assumed): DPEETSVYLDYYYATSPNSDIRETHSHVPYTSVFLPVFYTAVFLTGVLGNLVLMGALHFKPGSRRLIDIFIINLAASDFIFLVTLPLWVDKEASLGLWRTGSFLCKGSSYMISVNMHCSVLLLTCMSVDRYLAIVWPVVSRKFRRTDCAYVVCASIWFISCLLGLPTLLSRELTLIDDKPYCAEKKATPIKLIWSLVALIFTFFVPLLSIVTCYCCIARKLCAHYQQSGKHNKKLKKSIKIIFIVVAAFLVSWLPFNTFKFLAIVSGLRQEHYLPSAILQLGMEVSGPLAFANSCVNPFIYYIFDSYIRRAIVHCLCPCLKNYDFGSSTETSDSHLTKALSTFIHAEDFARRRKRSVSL
Experimental: Peptide-dependent second messenger responses were measured using commercially available HTRF-based IP1 and cAMP kits (Cisbio) as described previously ([Nørskov-Lauritsen et al., 2014]). Receptor expression was induced for 48 hr with 0.1 μg/ml doxycycline in 10 cm dishes. For IP1 measurements (to measure Gq/11), 2,500 cells/well were mixed with ligands in triplicate wells in low volume white 384-well plates at 37°C for 30 min. For cAMP assays, 2,500 cells/well were added in triplicate wells in white 384-well plates in the absence or presence of 3 μM forskolin (to measure Gs and Gi/o activation respectively). 100 μM IBMX was included to prevent cAMP degradation during 30 min stimulation on a plate shaker at room temperature. For both assays, HTRF was measured using an EnVision 2104 Multimode plate reader (PerkinElmer).

GPR68 [1] = target: T2, GPR68 (Homo sapiens, UniProt Q15743); test: GloSensor cAMP assay (Gs), allosteric operational model fitting; format: cell-based; parameters: expressed in transfected cells; host or cells: HEK293T, transient (PEI), co-transfected with GloSensor cAMP plasmid; conditions: for Log(ab/KB): allosteric operational model parameter, GPR68 GloSensor cAMP
Experimental: GPR68-mediated cAMP signaling was measured using GloSensor cAMP assays as published previously ([Huang et al., 2015], [Yu et al., 2019]) with modifications as indicated below. Calcium- and magnesium-free HBSS was supplemented with different organic buffer reagents for different pH solutions, 20 mM 2-(N-morpholino)ethanesulfonic acid (MES, Alfa Aesar) for pH 6.00 – 6.70, 20 mM 4-(2-hydroxyethyl)-1-piperazineethanesulfonic acid (HEPES, Fisher) for pH 6.80 – 8.20, and 20 mM (tris(hydroxymethyl)methylamino)propanesulfonic acid (TAPS) for pH 8.30 – 8.60. The phosphodiesterase (PDE) inhibitor Ro 20-1724 (10 μM final, Cayman Chemical) was included in pH buffers to eliminate potential effect of PDE […]. HEK293T cells were transfected with a modified polyethylenimine (PEI, Polysciences) transfection method ([Longo et al., 2013]). For a 15-cm dish of HEK293T cells with 25 mL growth medium, 8 μg receptor DNA and 8 μg GloSensor DNA (Promega) were mixed in 1 mL of Opti-MEM medium followed by addition of 80 μL PEI reagents. The mixture was added to cells after 20 min incubation at room temperature. Overnight transfected cells were plated in poly-L-lysine (Sigma) coated 384-well white clear bottom plates (Greiner Bio-One, #781098) using DMEM (Corning) + 1% dialyzed FBS (Omega Scientific) for at least 6 h (up to 24 h). Cells were removed of medium before receiving 20 μL/well of 3.5 mM luciferin (Goldbio) prepared in assay buffer (HBSS, 20 mM TAPS, pH 8.40, 10 μM Ro 20-1724) for 1 h at 37°C. Luciferin loading solutions were removed and premixed drug solutions at desired pH conditions were added to cells (25 μL/well). Luminescence was measured 25-30 min after drug application. Results were normalized (basal and maximum responses in the absence of modulator were set to be 0 and 100%) and pooled for analysis using GraphPad Prism.
All of the other parameters, including allosteric affinity cooperativity (α), allosteric modulator binding affinity KB, orthosteric agonist (protons) efficacy τA, system maximal response, and slope factor n were all globally shared for all datasets for each modulator. […] We therefore used an allosteric index, log(αβ/KB) ([Kenakin, 2017a]), which contains both allosteric binding affinity and cooperativity, to quantify the overall allosteric activity.
Target sequence in this assay (Q15743 whole entry): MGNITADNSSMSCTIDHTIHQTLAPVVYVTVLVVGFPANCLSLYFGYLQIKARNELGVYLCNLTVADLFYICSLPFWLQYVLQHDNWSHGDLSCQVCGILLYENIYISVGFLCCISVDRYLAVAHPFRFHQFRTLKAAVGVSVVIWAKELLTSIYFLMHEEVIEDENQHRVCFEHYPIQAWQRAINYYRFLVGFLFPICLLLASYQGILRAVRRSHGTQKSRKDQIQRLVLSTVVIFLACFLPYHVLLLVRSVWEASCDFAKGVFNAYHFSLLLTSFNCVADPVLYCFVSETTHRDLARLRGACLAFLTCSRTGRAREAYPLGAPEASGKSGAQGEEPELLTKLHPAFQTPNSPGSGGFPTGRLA

MRGPRX2 = target: T3, MRGPRX2 (Homo sapiens, UniProt Q96LB1); test: β-arrestin recruitment (Tango), known peptide receptors; format: cell-based; conditions: mean, n = 3
T3 construct: host or cells: HTLA cells (HEK293-derived)
T3 sequence (Q96LB1 1-330): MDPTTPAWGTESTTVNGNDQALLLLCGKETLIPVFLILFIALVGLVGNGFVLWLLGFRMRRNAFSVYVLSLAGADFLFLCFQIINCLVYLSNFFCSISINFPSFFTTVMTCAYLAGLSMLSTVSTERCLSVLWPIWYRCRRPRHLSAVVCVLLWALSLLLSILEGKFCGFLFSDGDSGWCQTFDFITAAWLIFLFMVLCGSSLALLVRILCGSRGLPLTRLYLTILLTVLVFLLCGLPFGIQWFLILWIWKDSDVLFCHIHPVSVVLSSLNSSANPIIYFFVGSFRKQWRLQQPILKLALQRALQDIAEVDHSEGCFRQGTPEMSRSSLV

NPY5 = target: T4, NPY5 (Homo sapiens, UniProt Q15761); test: as above; format: cell-based; conditions: NPY5R, n = 3; for Comment, Tango (fold over basal): Emax and pEC50 n.d.
T4 construct: host or cells: HTLA cells (HEK293-derived)
T4 sequence (Q15761 1-445): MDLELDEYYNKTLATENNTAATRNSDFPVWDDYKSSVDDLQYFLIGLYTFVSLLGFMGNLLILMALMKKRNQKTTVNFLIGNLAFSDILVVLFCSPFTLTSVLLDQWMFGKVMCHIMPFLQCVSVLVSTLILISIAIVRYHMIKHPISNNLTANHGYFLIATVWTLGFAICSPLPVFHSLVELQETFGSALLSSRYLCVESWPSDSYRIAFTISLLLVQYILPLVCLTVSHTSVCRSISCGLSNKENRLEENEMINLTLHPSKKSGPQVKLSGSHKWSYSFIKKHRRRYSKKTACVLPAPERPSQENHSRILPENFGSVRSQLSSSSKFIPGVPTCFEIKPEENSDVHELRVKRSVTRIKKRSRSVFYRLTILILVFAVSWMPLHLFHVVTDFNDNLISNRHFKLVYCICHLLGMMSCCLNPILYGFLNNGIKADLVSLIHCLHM
Experimental: (§1) The peptide library was additionally screened against 120 GPCR targets in parallel, including all available orphan receptors and 27 known class A peptide receptors using the Tango assay platform ([Kroeze et al., 2015]). Briefly, HTLA cells (a HEK293 cell line stably expressing a tTA-dependent luciferase reporter and a β-arrestin2-TEV fusion gene) were plated 10,000 cells/well in poly-L-lysine–coated clear-bottom white 384-well plates in DMEM supplemented with 10% FBS, 100 U/ml penicillin and 100 μg/ml streptomycin, 2 μg/ml puromycin and 100 μg/ml hygromycin B. 24 hr later, cells were transfected with Tango GPCR constructs using the calcium phosphate method ([Jordan et al., 1996]). The next day, culture medium was changed to DMEM + 1% dFBS and 10 μM peptides were added for overnight stimulation. Bright-Glo solution (Promega) was incubated for 15–20 min at room temperature, and luminescence was counted using a Trilux luminescence counter (Wallac).
For subsequent peptide validation experiments using Tango assays, HTLA cells were transiently transfected in 10 cm dishes with the receptor of interest using polyethylenimine (PEI) ([Longo et al., 2013]). After 24 hr, 25,000 cells/well were plated in clear bottom, white-walled 384-well plates. Assays were performed as described above, with luminescence measured using an EnSpire 2300 Multimode plate reader (PerkinElmer). Luminescence counts were exported into Excel and were analyzed using GraphPad Prism 7.

[2] = tested on: 120 GPCR targets, including all available orphan receptors and 27 known class A peptide receptors; test: Peptide library screen, β-arrestin recruitment (Tango, fold change, 10 μM); format: cell-based, human; conditions: Tango; receptor(s) at which the known library peptide was active, among its known GPCR target(s); validated pairings
Experimental: as §1

GPR68 [3] = target: T2, GPR68; test: Real-time receptor internalization (TR-FRET), concentration-response; format: cell-based; parameters: hIL-2Ra signal peptide (N); expressed in transfected cells; conditions: GPR68; real-time internalization; mean, SEM and n (3)
Experimental: 48 hr prior to parallel assaying, SNAP-tagged oGPCR cells were plated (10,000 cells/well) in fibronectin-coated 384-well Epic biosensor microplates (Corning) and poly-D-lysine coated white 384-well plates (for internalization assays). SNAP- GLP-1 receptor was plated alongside orphan receptor cells as an internal assay control for internalization assays. Receptor-expression was induced with 0.1 μg/ml doxycycline.
A TR-FRET real-time internalization assay was used to examine peptide-dependent changes in orphan receptor localization as described previously ([Foster and Bräuner-Osborne, 2018]). Surface-expressed SNAP-tagged receptors were labeled with a cell-impermeable luminescent terbium cryptate (100 nM SNAP Lumi4-Tb; Cisbio, France) for 1 hr at 37°C. Cells were washed to remove excess terbium and incubated with fluorescein-O-acetic acid (100 μM; Sigma Aldrich) for 5 min at 37°C. Peptides were added as for DMR assays, and internalization responses were recorded for 60 min at 37°C using an EnVision 2104 Multimode plate reader (PerkinElmer). 100 nM GLP-1 was used as a positive control for SNAP-GLP1R internalization. Real-time internalization responses were calculated based on TR-FRET (excitation 340 nm; emission 520 nm and 615 nm), and were expressed as the ratio between donor (terbium) and acceptor (fluorescein) emission. For peptide screening analysis (both DMR and internalization assays), we calculated the area under the curve from the real-time traces. As the magnitude of the responses was variable between orphan receptor targets, particularly for the SNAP-tag based internalization assay where the signal is dependent on receptor surface expression, the AUC values were normalized to their respective plate averages and expressed as fold change. Validation experiments for receptor internalization were performed as above. Internalization data was processed in MS-Excel and area under the curve was used to generate concentration-response curves using GraphPad Prism 7.0. Data represent mean ± standard error of the mean (SEM) from at least 3 biologically independent experiments.
Target sequence in this assay (Q15743 2-365 limits assumed): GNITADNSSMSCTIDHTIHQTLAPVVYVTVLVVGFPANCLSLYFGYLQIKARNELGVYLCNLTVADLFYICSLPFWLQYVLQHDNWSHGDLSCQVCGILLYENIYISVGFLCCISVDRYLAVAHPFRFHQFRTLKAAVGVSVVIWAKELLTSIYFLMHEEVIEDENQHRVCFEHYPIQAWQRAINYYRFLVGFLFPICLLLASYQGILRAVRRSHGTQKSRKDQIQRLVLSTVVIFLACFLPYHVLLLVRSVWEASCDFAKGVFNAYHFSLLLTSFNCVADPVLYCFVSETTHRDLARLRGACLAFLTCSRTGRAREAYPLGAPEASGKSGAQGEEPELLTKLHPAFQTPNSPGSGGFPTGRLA

## CC(C)C[C@H](NC(=O)[C@H](C)NC(=O)CNC(=O)[C@@H]1CCCN1C(=O)[C@@H](NC(=O)[C@@H](NC(=O)[C@H](Cc1c[nH]c2ccccc12)NC(=O)[C@@H](N)CC(C)C)C(C)C)C(C)C)C(=O)N1CCC[C@H]1C(=O)N[C@@H](CCC(N)=O)C(=O)N[C@H](C(=O)O)C(C)C [64 resynthesized] (H-LWVVPGALPQV-OH)
GPR15; receptor GPR15, SEM and n (4), read-out: cAMP accumulation assays Emax (% FSK)
  Emax: 30.8%

## CC(C)C[C@H](NC(=O)[C@H](C)NC(=O)CNC(=O)[C@@H]1CCCN1C(=O)[C@@H](NC(=O)[C@@H](NC(=O)[C@H](Cc1c[nH]c2ccccc12)NC(=O)[C@@H](N)CC(C)C)C(C)C)C(C)C)C(=O)N1CCC[C@H]1C(=O)N[C@@H](CCC(N)=O)C(=O)N[C@H](C(=O)O)C(C)C [GPR15L_(47-57)] (H-LWVVPGALPQV-OH)
GPR15; GPR15, SEM and n, read-out: Emax, cAMP (% FSK)
  Emax: 29.2%

## Nc1nc(NCc2ccccc2)nc(-c2ccccc2CO)n1 [Ogerin]
GPR68 [1]; replicate 1
  Log(ab/KB): 5.25
GPR68 [1]; replicate 2
  Log(ab/KB): 5.23
GPR68 [1]; replicate 3
  Log(ab/KB): 5.25

## CC[C@H](C)[C@H](NC(=O)[C@H](CCCNC(=N)N)NC(=O)[C@H](C)NC(=O)CNC(=O)[C@H](CCCCN)NC(=O)[C@H](CCCNC(=N)N)NC(=O)[C@@H](NC(=O)[C@H](C)NC(=O)[C@H](CS)NC(=O)[C@H](CCC(N)=O)NC(=O)[C@H](CCC(=O)O)NC(=O)CNC(=O)[C@H](C)NC(=O)[C@H](CC(=O)O)NC(=O)[C@H](CS)NC(=O)[C@H](CCSC)NC(=O)[C@@H]1CCCN1C(=O)[C@@H](NC(=O)[C@H](CCC(N)=O)NC(=O)CNC(=O)[C@@H](N)Cc1ccc(O)cc1)C(C)C)C(C)C)C(=O)O [Pepetide 139] (H-YGQVPMCDAGEQCAVRKGARI-OH; N-terminus assumed)
GPR68 [1]; replicate 1
  Log(ab/KB): 5.24
GPR68 [1]; replicate 2
  Log(ab/KB): 5.36
GPR68 [1]; replicate 3
  Log(ab/KB): 5.40
GPR68 [1]; replicate 4
  Log(ab/KB): 5.40
GPR68 [1]; fold difference of ab/KB relative to Ogerin
  Fold difference: 1.28

## ATVRNEDKWKPLNNPRNRDLFFRRLQAYFK [Peptide 175]
MRGPRX2
  Emax, Tango (fold over basal): 3.5 fold over basal
  pEC50, Tango (fold over basal): 4.67

## FLWKDLQRVR [Peptide 56]
MRGPRX2
  Emax, Tango (fold over basal): 4.9 fold over basal
  pEC50, Tango (fold over basal): 4.90

## IQAQLKELRY [Peptide 49]
NPY5
  Comment, Tango (fold over basal): Response >1uM

## MPHSFANLPLRF [Peptide 86]
NPY5; mean
  Emax, Tango (fold over basal): 10.4 fold over basal
  pEC50, Tango (fold over basal): 5.44
[2]
  Active at: (activity in b-arrestin recruitment assays): NPFF1

## QMAVKKYLAAVL [Peptide 84]
MRGPRX2
  Emax, Tango (fold over basal): 7.0 fold over basal
  pEC50, Tango (fold over basal): 5.02

## RFGIPMDRIGRNRLSNSR [Peptide 128.1]
GPR68 [3]
  Internalization assays Emax (AUC): 2.0

## SQAFLFQPQRF [Peptide 75]
NPY5
  Comment, Tango (fold over basal): Response >1uM
[2]
  Active at: (activity in b-arrestin recruitment assays): NPFF1

## VPNLPGRF [Peptide 36]
NPY5
  Comment, Tango (fold over basal): Response >1uM

## WYKHVASPRYHTVGRAAGLLMGL [Peptide 151]
[2]
  Active at: (activity in b-arrestin recruitment assays): NPBW1, NPBW2
MRGPRX2
  Emax, Tango (fold over basal): 3.4 fold over basal
  pEC50, Tango (fold over basal): 4.73
